Key:
[1] = Fluorescence emission spectra without and with saturating ligand (wavelength shift, ΔIstd, ΔRmax); design: key to ΔIstd: intensity change at λstd normalized to average intensity; key to ΔRmax: ratio change of two emission band areas, unbound vs saturated; settings: unbound vs ligand-saturated; for ΔIstd: standard intensity change; for ΔRmax: standard ratiometric change
Method: (§1) Fluorimetry. All measurements were conducted with an SLM Aminco-Bowman series 2 fluorimeter, with sample stirring at 25° C. Fluorescence emission spectra were acquired with excitation and emission slit widths of 4 and 8 nm, respectively. Photomultiplier tube potential was maintained between 400 and 800 volts. Protein concentrations were in the range of 50 to 1000 nM. Fluorophore-specific excitation was at the following approximate wavelengths: tryptophan, 290 nm; acrylodan, 390 nm; fluorescein, 485 nm; pyrene, 340 nm; NBD and NBDE, 490 nm; JPW4039, 485 nm; JPW4042, 470 nm; JPW4045, 470 nm.
Assessment of fluorescent biosensor function. Fluorescence emission spectra of bPBP-fluorophore conjugates were recorded in the absence and presence of saturating ligand concentrations. Spectral changes were characterized by four parameters: wavelength shift (the difference between the wavelengths of emission maximum in the unbound and ligand-saturated states), direction of intensity change (increase or decrease in intensity at the wavelengths of maximum emission in the two states), standard intensity change (ΔIstd), and standard ratiometric change (ΔR). ΔIstd is defined as the normalized intensity change relative to the average intensity, determined at the wavelength mid-point between the two emission maxima:
[formula] where λstd=(λmax, unbound+λmax, saturated)/2 and I1, I2 are the fluorescence intensities at λstd of each spectrum respectively (FIG. 4A). ΔR is defined in terms of two emission bands, A1 ([λ1, λ2]) and A2 ([λ3, λ4]) (FIG. 4B):
[formula] where ^∘A1, […] the areas in the absence of ligand, and ^∞A1, ^∞A2 the areas in the presence of saturating ligand. A computer program was used to enumerate ΔR for all possible pairs of wavelength bands in the two spectra, to identify the optimal sensing condition, defined as the maximum value of ΔR. Adjustable parameters of the algorithm, and their values used for ΔRmax quantities reported here, are: step size (2 nm), step width (10 nm), minimum integration area limit (fraction of total: 0.1), and maximum integration area limit (fraction of total: 1).

[2] = biological target: E. coli glucose binding protein variant W183C, fluorophore conjugate (Escherichia coli, UniProt P0AEE5, W206C); test: biochemical
Method: The normal serum glucose range (euglycemia) of 4 to 6 mM is delimited by vertical lines.
(§2) Molecular Cloning. […] Amplified products were cloned into one of the protein expression vectors pAED4 (Doering, “Functional and structural studies of a small f-actin binding domain” in Ph.D. thesis, Massachusetts Institute of Technology, 1992); pKK223-3 (Brosius & Holy, Proc. Natl. Acad. Sci. USA 81:6929-6933, 1984); or pET vectors (Studier et al., Meth. Enzymol. 185:60-89, 1990) (Novagen). N-terminal oligonucleotide primers were designed to clone only the processed periplasmic form, deleting the signal sequence. The C-terminal primer was designed to append the sequence Gly-Ser-Gly-(His)n or Gly-Ser-(His)n, where n=5, 6, or 10. Two tandem stop codons (TAATGA) follow the last His codon. […] Single amino acid substitutions were generated by overlapping PCR mutagenesis (Ho et al., Gene 77:51-59, 1989). All clones and mutations were confirmed by nucleotide sequencing. In the case of arabinose BP, the single cysteine in the wild type sequence was replaced by alanine to eliminate the possibility of reporter group conjugation to this thiol (Miller et al., J. Biol. Chem. 254:7521-7528, 1979). Additionally the sequence of Fe(III) BP was mutated by substitution of Glu57 with Asp to raise the Kd to a concentration range conveniently measured using Fe(III) citrate.
(§3) Fluorophore conjugation to cysteine-substituted bPBPs. Thiol-reactive fluorophores obtained from Molecular Probes (Eugene, Oreg.) were 5-iodoacetamidofluorescein (fluorescein); N-(1-pyrene) iodoacetamide (pyrene); N,N′-dimethyl-N-(iodoacetyl)-N′-(7-nitrobenz-2-oxa-1,3-diazol-4-yl)ethylenediamide (NBD); N-((2-(iodoacetoxy)ethyl)-N-methyl)amino-7-nitrobenz-2-oxa-1,3-diazole (NBDE); and 6-acryloyl-2-dimethylaminonaphthalene (acrylodan). The styryl and naphthyl dyes JPW4039, JPW4042, and JPW4045 (FIG. 3) were synthesized at the University of Connecticut. All fluorophore conjugation steps were typically carried out at room temperature. To protein at a concentration of 100 μM was added tris-(2-carboxyethyl)phosphine HCl to a five-fold molar excess to reduce intermolecular disulfide bonds. A thiol-reactive fluorophore (20 to 25 mM in acetonitrile or dimethyl sulfoxide) was added in small aliquots to a five-fold molar excess over protein. Conjugation proceeded in the dark at room temperature for 4 hours, or overnight at 4° C. Separation of protein from unreacted fluorophore was achieved by exhaustive dialysis or by size-exclusion chromatography. The efficiency of reporter group attachment was assessed by determination of unreacted thiol with Ellman's reagent (Ellman, Arch. Biochem. Biophys. 74:443-450, 1958) or by measuring the ratio of fluorophore to protein from absorbance spectra of the purified conjugate.
as §1
(§4) Corrections were made for dilution of the protein and for background signal from buffer. Binding curves were fit to binding isotherms using equation 3 or 4, as appropriate.
Analyte affinity measurements.

[3] = biological target: T1, E. coli glutamate/aspartate binding protein (YBEJ, SEQ ID NO:3) variant T129C, fluorophore conjugate (Escherichia coli, UniProt P37902, T129C); test: Fluorimetric titration of fluorophore conjugates
T1 construct: The underlined methionine is the initiation codon for expression of YBEJ used in the study; initiation methionine (N); Gly-Ser-Gly-(His)n or Gly-Ser-(His)n (C); made in house; host or cells: E. coli BL21-DE3
Source text: as §2, §3, §1, §4
(§5) Analyte affinity measurements. […] The emission wavelength monitored was that of maximum difference in intensity between the ligand-free and bound states. For each conjugate, fluorescence intensiometric observations were fit to a hyperbolic binding isotherm for a two-state model (Marvin et al., Proc. Natl. Acad. Sci. USA 94:4366-4371, 1997): […]

[4] = biological target: T2, E. coli glutamate/aspartate binding protein (YBEJ, SEQ ID NO:3) variant Q123C, fluorophore conjugate (Escherichia coli, UniProt P37902, Q123C); test: Fluorimetric titration of fluorophore conjugates
T2 construct: The underlined methionine is the initiation codon for expression of YBEJ used in the study; initiation methionine (N); Gly-Ser-Gly-(His)n or Gly-Ser-(His)n (C); made in house; host or cells: E. coli BL21-DE3
Source text: as §2, §3, §1, §4, §5

T1 sequence (P37902 other isoform, or with tags, fused parts or gaps T129C): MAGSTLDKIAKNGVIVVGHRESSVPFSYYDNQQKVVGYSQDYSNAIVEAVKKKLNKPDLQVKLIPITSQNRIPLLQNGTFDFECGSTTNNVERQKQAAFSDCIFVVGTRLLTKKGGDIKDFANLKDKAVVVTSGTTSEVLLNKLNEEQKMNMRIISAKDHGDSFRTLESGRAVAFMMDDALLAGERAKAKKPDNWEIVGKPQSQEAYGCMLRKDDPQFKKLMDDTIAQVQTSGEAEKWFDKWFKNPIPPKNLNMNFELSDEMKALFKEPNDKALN
Chain of E. coli glucose binding protein variant W183C, fluorophore conjugate (P0AEE5 24-332 W206C limits assumed): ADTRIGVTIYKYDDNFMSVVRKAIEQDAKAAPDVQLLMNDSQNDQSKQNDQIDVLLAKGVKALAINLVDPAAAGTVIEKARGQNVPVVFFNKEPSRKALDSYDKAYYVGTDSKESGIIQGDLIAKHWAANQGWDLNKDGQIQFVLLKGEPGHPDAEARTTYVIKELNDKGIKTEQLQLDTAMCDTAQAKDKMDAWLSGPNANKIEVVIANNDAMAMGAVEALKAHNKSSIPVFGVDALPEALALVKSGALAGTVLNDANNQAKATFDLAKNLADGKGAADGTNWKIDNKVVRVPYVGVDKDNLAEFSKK
T2 sequence (P37902 other isoform, or with tags, fused parts or gaps Q123C): as the sequence (P37902 other isoform, or with tags, fused parts or gaps T129C) above, with Q96C, C102T counted along it

| Molecule | ΔIstd [1] | ΔRmax [1] | further results |
| --- | --- | --- | --- |
| sulfate BP L65C NBD | 0.02 | 0.61 |  |
| OC[C@H]1OC(O)[C@H](O)[C@@H](O)[C@@H]1O (stereo partly shown) [glucose] |  |  | Kd ([2]; Kd, Acrylodan conjugate, endosteric site): 5.98 mM; Kd ([2]; Kd, Fluorescein conjugate, endosteric site): 17.6 mM; Kd ([2]; appKd, W183C-acrylodan, ratiometric, F450-459/F486-495): ~10.4 mM; Kd ([2]; appKd, W183C-acrylodan, ratiometric, F450-459/F550-559): ~5 mM; Kd ([2]; appKd, W183C-acrylodan, ratiometric, F472-481/F450-459): ~17.4 mM; Kd ([2]; dissociation constant, W183C-acrylodan): 5.98 mM |
| sulfate BP Y67C NBD | 0.13 | 0.20 |  |
| sulfate BP Y67C Acrylodan | 0.00 | 0.12 |  |
| sulfate BP W290C Acrylodan | 0.04 | 0.03 |  |
| sulfate BP L65C Fluorescein | 0.39 | 1.31 |  |
| sulfate BP R134C NBD | 0.58 | 0.37 |  |
| sulfate BP R134C JPW4042 | 0.52 | 0.96 |  |
| sulfate BP R134C JPW4039 | 0.08 | 2.02 |  |
| sulfate BP W290C NBD | 0.06 | 0.11 |  |
| sulfate BP R134C Pyrene | 0.15 | 1.30 |  |
| sulfate BP Q294C JPW4042 | 0.27 | 1.17 |  |
| NC(=O)CC[C@H](N)C(=O)O [glutamine] |  |  | Kd ([3]; T129C-JPW4039): 0.023 mM; Kd ([3]; T129C-NBD): 0.0121 mM; Kd [4]: 0.049 mM |
| sulfate BP Q294C NBD | 0.00 | 0.02 |  |
| sulfate BP W290C JPW4042 | 0.43 | 0.89 |  |
| sulfate BP Y67C Fluorescein | 0.01 | 0.04 |  |
| sulfate BP L65C Acrylodan | 0.39 | 2.95 |  |
| sulfate BP Y67C Pyrene | 0.02 | 0.48 |  |
| sulfate BP L65C JPW4042 | 0.40 | 1.82 |  |
| sulfate BP W290C Pyrene | 0.16 | 0.37 |  |
| sulfate BP R134C Fluorescein | 0.01 | 0.02 |  |
| sulfate BP Q294C Acrylodan | 0.04 | 0.13 |  |
| sulfate BP R134C Acrylodan | 0.18 | 2.26 |  |
| sulfate BP W290C Fluorescein | 0.04 | 0.09 |  |
| sulfate BP L65C Pyrene | 0.13 | 1.20 |  |
| NC(=O)C[C@H](N)C(=O)O [asparagine] |  |  | Kd ([3]; T129C-NBD): 0.0054 mM; Kd [4]: 0.096 mM |
| sulfate BP Q294C Pyrene | 0.01 | 0.08 |  |
| sulfate BP Q294C Fluorescein | 0.00 | 0.11 |  |

— patent US9625458B2, “Biosensor” (priority 2002, dated 2017)
